One series deals with hippocampal neurons. Put plainly: NMDA- or STS-induced apoptosis in cultured hippocampal neurons (Cell Death ELISA, 11-dUTP, PI staining). It is filed as cell-based, rat. As to conditions: 100 μM NMDA + 10 μM glycine 1 h, read at 24 h; APV 50 μM; sucrose 0.4 M; myr-Dyn 100 μM; R2-CT 1 μM with Pep-1. The protocol: Hippocampi were rapidly removed from embryonic E l 8 Sprague Dawley rats and pooled prior to trituration. Hippocampal cell suspensions were plated onto poly-Dlysine coated culture dishes or glass coverslips and grown in Neurobasal™ media 10 (Invitrogen) for 14 days in vitro (DIV). The media from mature 14 DIV neurons was removed and replaced with 100 μM NMDA plus 10 μM glycine for 1 h at 37° C. prior to restoring neurons to the defined growth media. Twenty four hours after NMDA/glycine application, neurons were processed using cell death assays. NMDA-induced [Ca^2+]i responses were evoked and measured using methods described previously^26.
Apoptosis quantification: NMDA-induced apoptosis was quantified either using a Cell Death Detection Elisa Plus Kit (Roche Applied Sciences), which is based on the in vitro determination of cytoplasmic histone-associated DNA fragments, or using TdT mediated addition of biotinylated 11-dUTP to the free 3′-OH ends of DNA. Absorbance readings for both assays were carried out using a microplate reader.
Propidium Iodide (PI) staining of nuclei: After the induction of apoptosis, cells were fixed with 4% parafonnaldehyde/4% sucrose for 10 min followed by ice cold acetone for 1 min, and then stained with […] PI in Dulbecco's PBS for 30 min. Stained coverslips were mounted onto glass slides and viewed with a Leica fluorescence microscope to identify condensed nuclei. Cells with condensed nuclei were counted as apoptotic and the percentage of apoptotic cells to the total number of cells was calculated to give a semi-quantitative analysis, expressed as percentage of apoptosis.
A short peptide (YKEGYNVYGIE (SEQ ID NO. 2)) corresponding to amino acid residues from 869 to 879 of the C-terminus of GluR2 (R2-CT) was synthesized and incubated with a carrier protein (Pep-1)23 at a ratio of 1:20 in Dulbecco's modified Eagle's medium
(DMEM, Gibco) at 37° C. in a humidified atmosphere containing 5% CO2 for 30 min to allow the formation of R2-CT/Pep-1 complex. Hippocampal neurons (DW 12-14) were then overlaid with the preformed complex to reach a final R2-CT concentration of 1 μM and further incubated for 1 h before experiments commenced. Receptor Trafficking Assays
On the technique in general: ELISA stands for enzyme-linked immunosorbent assay.

The next series addresses pp60 c-Src (Homo sapiens, UniProt P12931). The experiment in a line: In vitro kinase assay with active recombinant Src. As to conditions: GST fusion protein as substrate. The series is classed as biochemical. From the text: FIGS. 7 A-D. Insulin increases phosphorylation of tyrosine residues within the GluR2 carboxyl terminal (CT) region. A. In vitro tyrosine phosphorylation of the GluR2 CT. GST fusion proteins of the GluR1 CT (GST-GluR1CT), the GluR2 CT (GST-GluR2CT), residues 869-876 (YKEGYNVYG (SEQ ID NO. 4)) of the GluR2 CT (GST-GluR23Y), which contains a cluster of three tyrosine residues (Y869, Y873, and Y876) and the same amino acid stretch of the GluR2 CT with its tyrosine residues replaced by alanines (GST-GluR23A), along with the GST back bone (GST) as control, were incubated in the absence (−) or presence (+) of active recombinant pp60 c-Src. Phosphorylation products were immunoblotted using an anti-phosphotyrosine antibody (top panel). […] B. Expression levels of HA-GluR2 and HA-GluR23Y-3A (where tyrosines 869, 873 and 876 were mutated to alanines) 48 h after transient transfection into HEK293 cells were determined by a cell ELISA assay using permeabilized cells. C. HEK293 cells transiently transfected with HA-GluR1, HA-GluR2 or HA-GluR23Y-3A, along with empty vector (mock transfection) as control. Forty-eight hours later, the cells were treated with or without 0.5 μM insulin for 10 min. The lysates were then subjected to immunoprecipitation with an anti-HA antibody under denaturing conditions and immunoblotting with an anti-phosphotyrosine antibody (Top blot; IB: PY). […]

The subject of series [1] is CA1 neurons in hippocampal slices. Put plainly: Insulin-induced depression of AMPA receptor-mediated EPSCs, whole-cell recording of CA1 neurons. The series is classed as cell-based, rat. The note with it: 100 μg/ml in recording pipette; insulin 0.5 μM in bath. As for the experimental part: GST-GluR23Y and GST-GluR23A were constructed by subcloning corresponding PCR fragments into pGEX 4T-1 vectors. GST fusion proteins were expressed in DH5α E. coli and purified from bacterial lysates according to the manufacturer's protocol (Pharmacia). Products were dialyzed in PBS and concentrated using Microcon-10 columns (Amicon) for intracellular application during whole-cell recordings.
Hippocampal slices (400 μm thickness) were prepared from Sprague-Dawley rats aged 16-26 postnatal days and perfused at room temperature with artificial cerebrospinal fluid containing (mM): 126 NaCl, 26 NaHCO3, 10 glucose, 3 KCl, 1.2 KH2PO4, 1 MgCl2, and 1 CaCl2, saturated with 95% O2/5% CO2^14. The recording pipettes (4-5 MO) were filled with solution containing (mM): 135 CsCl, 10 HEPES, 5 QX-314, 4 Mg-ATP, 2 MgCl2, 0.5 EGTA, 0.2 GTP and 0.1 CaCl2, pH 7.4, 310 mOsm. Whole-cell recording of CA1 neurons and the induction of LFS-LTD were performed as previously described.^14 […]

The next series has as its system Sprague-Dawley rats. The experiment in a line: Transient focal ischemia model (MCA occlusion), TUNEL staining and neurological exam. The series is classed as in vivo, rat. The note with it: 10 min prior to MCA occlusion; 3 nmoles/g. The protocol: The procedure was performed essentially as described previously (70). Briefly, adult male Sprague-Dawley rats between 280 and 320 g (20 h fasted weight) were anesthetized with an inhaled mixture of 4% isofluorane, in 30% oxygen balanced nitrous oxide, and maintained on 1.5% isofluorane. Bronchial secretions were minimized by administering 0.5 mg/kg of atropine intraperitoneally. […] The experimenter was blinded to the identity of the treatment groups for all surgeries and down-stream experiments. Under a dissection microscope, the common carotid artery (CCA), external carotid artery (ECA), and internal carotid artery (ICA) were exposed and dissected. […] Rectal temperature, and blood pressure measured with a tail cuff were measured before treatment, 15 min post injection, 50 min post injection, and 15 min post MCA occlusion. The plasma pH, O2, and CO2 were measured with a Rapidlab™ 348 blood gas analyzer (Bayer Diagnostics) in some animals to ensure that the gas flow rates used were appropriate and yielded reproducible blood gases. […]
At day 1 post MCAo rats were anesthetized with 1.5 mL of 25% urethane and were perfused with 100 mL of 0.9% saline followed by 120 mLs of 4% paraformaldehyde in PBS. […] The slices were scored for number of cells that stained positive for TMR-TUNEL per field of view at 10× magnification. […]

Another series deals with rats. As to conditions: IV 60 min prior to test session; versus saline. The protocol: A. Rats maintained on a restricted feeding schedule were trained to lever-press for food pellets (45 mg) on a fixed-ratio 2 (FR2) schedule during 2-hour test sessions. Rats received IV injections of saline, GluR2-3A, or GluR2-3Y, in a counterbalanced order, 60 min prior to the test session. […] B. Rats were first trained to self-administer d-amphetamine (0.2 mg/infusion) via a jugular catheter on an FR2 schedule of reinforcement. Once responding in the 3 hour test sessions had stabilized, the rats were then trained on a Progressive Ratio Schedule in which successively more responses were required to obtain each successive reinforcement. […] Once stable Break point values were established, rats received IV injections of saline, GluR2-3A, or GluR2-3Y, in a counterbalanced order, 60 min prior to the test session.

From patent US9486472B2, “Methods for modulating neuronal responses” (UNIVERSITY OF BRITISH COLUMBIA CANADA, priority 2003, dated 2016) come the findings set out here.

No end group written: not given here.

Consider `N[C@@H](CCCP(=O)(O)O)C(=O)O` [APV, reference compound], for which the NMDA-induced apoptosis entry with hippocampal neurons is “fully blocked”.
On to “GSTAKEGANVAG [GST-GluR23A, mutant counterpart with tyrosines replaced by alanines, control, reference compound]”, for which, in the series with pp60 c-Src, the “tyrosine phosphorylation by recombinant Src kinase” value is reported as “abolished”. For the same compound, the “insulin-induced EPSC depression” value in series [1] was “had no effect”.
In the case of “YGRKKRRQRRRAKEGANVAGIE [Tat-GluR2-3A, YGRKKRRQRRR-AKEGANVAGIE, reference compound]”, in the series with Sprague-Dawley rats, the “mean arterial blood pressure (MABP) versus saline” value is “significantly lower mean arterial blood pressure”. In the series on rats, the “Break Point measures for drug-reward” value is reported as “no significant differences in the Break Point measures for drug-reward” and the “total number of responses for food reward” value is listed as “no significant differences in total number of responses for food reward”.
